Measurements published in publication PMC12155096 (International Journal of Molecular Sciences, 2025).
Read-outs that look alike come from different tables or passages of the source.

Legend:
human CYP1A2 [1] = target: T1, human CYP1A2 (Homo sapiens, UniProt P05177); details: human
T1 sequence (P05177 1-516): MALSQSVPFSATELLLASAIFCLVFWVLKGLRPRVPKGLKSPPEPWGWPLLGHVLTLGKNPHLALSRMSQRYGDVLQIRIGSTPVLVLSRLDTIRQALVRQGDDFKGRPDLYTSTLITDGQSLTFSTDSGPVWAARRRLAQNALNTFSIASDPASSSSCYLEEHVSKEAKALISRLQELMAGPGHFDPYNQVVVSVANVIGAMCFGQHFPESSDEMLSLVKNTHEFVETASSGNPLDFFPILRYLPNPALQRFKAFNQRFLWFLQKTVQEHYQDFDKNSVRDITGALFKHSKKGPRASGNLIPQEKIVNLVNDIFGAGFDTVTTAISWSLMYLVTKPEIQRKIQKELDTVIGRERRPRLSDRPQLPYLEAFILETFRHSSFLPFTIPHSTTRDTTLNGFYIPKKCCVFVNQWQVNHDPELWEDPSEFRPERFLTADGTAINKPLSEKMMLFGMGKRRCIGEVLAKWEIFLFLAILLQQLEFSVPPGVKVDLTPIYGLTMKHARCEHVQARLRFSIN

human CYP2C19 [2] = target: T2, human CYP2C19 (Homo sapiens, UniProt P33261)
T2 sequence (P33261 whole entry): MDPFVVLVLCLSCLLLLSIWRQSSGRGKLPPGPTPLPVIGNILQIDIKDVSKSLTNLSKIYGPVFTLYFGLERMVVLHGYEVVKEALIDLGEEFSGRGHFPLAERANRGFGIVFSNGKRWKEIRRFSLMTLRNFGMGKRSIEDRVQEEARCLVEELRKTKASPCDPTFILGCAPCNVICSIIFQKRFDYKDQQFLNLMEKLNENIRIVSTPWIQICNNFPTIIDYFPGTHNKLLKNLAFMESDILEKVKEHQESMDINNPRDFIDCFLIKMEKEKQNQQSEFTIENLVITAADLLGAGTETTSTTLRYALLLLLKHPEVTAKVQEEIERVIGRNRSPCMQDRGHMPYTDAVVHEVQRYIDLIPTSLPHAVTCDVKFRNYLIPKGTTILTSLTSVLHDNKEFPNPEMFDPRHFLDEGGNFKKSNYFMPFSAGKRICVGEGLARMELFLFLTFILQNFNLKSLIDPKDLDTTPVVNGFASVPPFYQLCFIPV

CYP3A4 = CYP3A4 (Homo sapiens, UniProt P08684)
Sequence of CYP3A4 (P08684 whole entry): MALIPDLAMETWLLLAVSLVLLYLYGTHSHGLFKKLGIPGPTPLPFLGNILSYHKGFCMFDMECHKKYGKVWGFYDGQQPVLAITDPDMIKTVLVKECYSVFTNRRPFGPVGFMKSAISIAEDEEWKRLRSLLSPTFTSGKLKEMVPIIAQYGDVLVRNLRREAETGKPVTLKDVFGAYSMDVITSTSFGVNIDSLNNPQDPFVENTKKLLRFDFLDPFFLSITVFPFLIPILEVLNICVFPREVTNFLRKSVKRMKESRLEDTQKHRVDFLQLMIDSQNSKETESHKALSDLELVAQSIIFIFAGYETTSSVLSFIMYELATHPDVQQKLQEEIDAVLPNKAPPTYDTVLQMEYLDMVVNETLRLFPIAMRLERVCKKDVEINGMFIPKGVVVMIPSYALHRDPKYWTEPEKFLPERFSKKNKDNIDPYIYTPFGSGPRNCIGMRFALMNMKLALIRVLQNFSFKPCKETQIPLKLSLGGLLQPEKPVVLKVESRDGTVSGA

[3] = target: Photinus pyralis (firefly) luciferase (Photinus pyralis, UniProt P08659); assay: biochemical; assay type: biochemical
Sequence of Photinus pyralis (firefly) luciferase (P08659 whole entry): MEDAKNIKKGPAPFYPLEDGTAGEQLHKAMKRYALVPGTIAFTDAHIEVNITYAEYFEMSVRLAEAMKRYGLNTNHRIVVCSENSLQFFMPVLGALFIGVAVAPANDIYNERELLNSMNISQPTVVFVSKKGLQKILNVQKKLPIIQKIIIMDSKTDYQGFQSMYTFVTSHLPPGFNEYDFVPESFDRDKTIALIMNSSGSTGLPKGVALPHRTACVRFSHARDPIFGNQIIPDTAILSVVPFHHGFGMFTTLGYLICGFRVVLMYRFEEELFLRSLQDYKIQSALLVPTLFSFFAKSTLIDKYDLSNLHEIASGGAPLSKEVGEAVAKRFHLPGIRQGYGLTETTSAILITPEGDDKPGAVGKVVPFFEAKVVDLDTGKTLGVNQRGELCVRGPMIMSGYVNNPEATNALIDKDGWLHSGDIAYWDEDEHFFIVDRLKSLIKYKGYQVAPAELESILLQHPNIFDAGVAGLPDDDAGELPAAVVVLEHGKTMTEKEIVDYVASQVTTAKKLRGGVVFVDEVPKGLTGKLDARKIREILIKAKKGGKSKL

human CYP2C9 [4] = target: T3, human CYP2C9 (Homo sapiens, UniProt P11712)
T3 sequence (P11712 whole entry): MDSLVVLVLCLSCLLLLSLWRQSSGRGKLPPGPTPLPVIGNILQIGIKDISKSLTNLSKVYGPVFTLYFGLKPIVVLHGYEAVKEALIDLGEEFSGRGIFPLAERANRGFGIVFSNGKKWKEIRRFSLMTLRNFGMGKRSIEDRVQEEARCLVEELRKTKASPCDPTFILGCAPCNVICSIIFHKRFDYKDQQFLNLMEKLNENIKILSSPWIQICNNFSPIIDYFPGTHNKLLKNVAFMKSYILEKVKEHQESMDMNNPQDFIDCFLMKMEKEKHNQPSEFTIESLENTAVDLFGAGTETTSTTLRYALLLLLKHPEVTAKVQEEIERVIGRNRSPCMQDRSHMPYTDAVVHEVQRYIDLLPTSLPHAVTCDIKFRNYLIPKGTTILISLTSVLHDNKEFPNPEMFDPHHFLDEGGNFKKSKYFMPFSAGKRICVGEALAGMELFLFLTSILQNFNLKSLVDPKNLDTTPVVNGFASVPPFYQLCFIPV

human CYP1A2 [5] = target: T1, human CYP1A2; assay: biochemical
human CYP2D6 = human CYP2D6 (Homo sapiens, UniProt P10635)
Sequence of human CYP2D6 (P10635 whole entry): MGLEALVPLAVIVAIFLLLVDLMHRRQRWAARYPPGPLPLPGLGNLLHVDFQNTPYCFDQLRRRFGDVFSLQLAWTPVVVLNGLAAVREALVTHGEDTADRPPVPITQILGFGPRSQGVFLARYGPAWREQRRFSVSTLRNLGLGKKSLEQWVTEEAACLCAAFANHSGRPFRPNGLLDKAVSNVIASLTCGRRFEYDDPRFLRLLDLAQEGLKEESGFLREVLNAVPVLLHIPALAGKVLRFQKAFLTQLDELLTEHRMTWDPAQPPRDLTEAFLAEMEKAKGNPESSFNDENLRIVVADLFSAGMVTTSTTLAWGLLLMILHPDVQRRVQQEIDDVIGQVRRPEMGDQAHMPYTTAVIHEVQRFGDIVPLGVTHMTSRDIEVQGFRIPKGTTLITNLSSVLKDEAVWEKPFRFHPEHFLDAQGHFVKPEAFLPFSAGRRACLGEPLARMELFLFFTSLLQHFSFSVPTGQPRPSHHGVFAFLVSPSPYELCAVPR

human CYP2C9 [6] = target: T3, human CYP2C9; assay: biochemical
human CYP2C19 [7] = target: T2, human CYP2C19; assay: biochemical
[8] = CYP1A2 IC50 (half-maximal inhibitory concentration)

SMILES | CYP1A2 Efficacy (in parenthesis) (human CYP1A2 [1]) | CYP2C19 IC50 (half-maximal inhibitory concentration) (human CYP2C19 [2]) | CYP3A4 IC50 (half-maximal inhibitory concentration) (CYP3A4) | Luciferase IC50 (half-maximal inhibitory concentration) [3] | CYP2C9 IC50 (half-maximal inhibitory concentration) (human CYP2C9 [4]) | IC50 (human CYP1A2 [5]; [8]) | CYP2D6 IC50 (half-maximal inhibitory concentration) (human CYP2D6) | CYP3A4 IC50 (CYP3A4) | Luciferase IC50 [3] | IC50 (human CYP1A2 [5]; CYP1A2 IC50) | CYP2D6 IC50 (human CYP2D6) | CYP2C9 IC50 (human CYP2C9 [4]) | CYP2C19 IC50 (human CYP2C19 [2]) | other results
Nc1c(Br)cc(Br)c2c1C(=O)c1ccccc1C2=O [1-Amino-2,4-dibromoanthraquinone] | 0.14 ± 0.03 (-99 ± 12) % | Inactive | Inactive | Inactive | Inactive | 140 nM | Inactive |  |  |  |  |  |  | 
O=C1c2ccccc2C(=O)c2cc(Cl)ccc21 [2-Chloroanthraquinone] |  | Inactive | Inactive | Inactive | Inactive |  | Inactive |  |  |  |  |  |  | IC50 (human CYP1A2 [5]): 110 ± 30 nM
Brc1c2ccccc2c(Br)c2ccccc12 [9,10-Dibromoanthracene] | 0.41 ± 0.27 (-85 ± 6) % | Inactive | Inactive | Inactive | Inactive | 410 nM | Inactive |  |  |  |  |  |  | 
Brc1cc2ccccc2c2ccccc12 [9-Bromophenanthrene] | 0.32 ± 0.09 (-101 ± 1) % |  | Inactive | Inactive |  | 320 nM | Inactive |  |  |  |  |  |  | CYP2C19 Efficacy (in parenthesis) (human CYP2C19 [2]; human): 29.42 ± 9.47 (-107 ± 13) %; IC50 (human CYP2C9 [6]; CYP2C9 IC50 (half-maximal inhibitory concentration)): 56800 nM; IC50 (human CYP2C19 [7]; CYP2C19 IC50 (half-maximal inhibitory concentration)): 29400 nM; CYP2C9 Efficacy (in parenthesis) (human CYP2C9 [4]; human): 56.84 ± 0 (-53 ± 6) %
N#Cc1c2ccccc2cc2ccccc12 [9-Cyanoanthracene] |  |  |  |  |  |  |  | Inactive | Inactive | 220 nM | Inactive |  |  | IC50 (human CYP2C9 [6]; CYP2C9 IC50): 6160 nM; IC50 (human CYP2C19 [7]; CYP2C19 IC50): 16000 nM
c1ccc2cc3ccccc3cc2c1 [Anthracene] |  |  |  |  |  |  |  | Inactive | Inactive | 500 nM | Inactive | Inactive |  | IC50 (human CYP2C19 [7]; CYP2C19 IC50): 67000 nM
O=C1c2ccccc2C(=O)c2ccccc21 [Anthraquinone] | 0.23 ± 0.06 (-96 ± 3) % | Inactive | Inactive | Inactive | Inactive | 230 nM | Inactive |  |  |  |  |  |  | 
c1ccc2c(c1)cc1ccc3cccc4ccc2c1c34 [Benzo(a)pyrene] |  |  |  |  |  |  |  | Inactive |  | 300 nM | Inactive |  | Inactive | IC50 (human CYP2C9 [6]; CYP2C9 IC50): 23400 nM; IC50 [3]: 16400 nM
c1cc2ccc3ccc4ccc5cccc6c(c1)c2c3c4c56 [Benzo(g,h,i)perylene] |  |  |  |  |  |  |  | Inactive | Inactive | 160 nM | Inactive | Inactive | Inactive | 
c1ccc2cc3c(cc2c1)-c1cccc2cccc-3c12 [Benzo(k)fluoranthene] |  |  |  |  |  |  |  | Inactive | Inactive | 170 nM | Inactive | Inactive | Inactive | 
CC(C)(Cc1c[nH]c2ccccc12)NCC(O)COc1ccccc1C#N (centres unmarked) [Bucindolol] |  | Inactive | Inactive | Inactive | Inactive |  |  |  |  |  |  |  |  | IC50 (human CYP1A2 [5]): 29200 ± 2380 nM
c1ccc2c(c1)ccc1c3ccccc3ccc21 [Chrysene] |  |  |  |  |  |  |  | Inactive | Inactive | 650 nM | Inactive | Inactive | Inactive | 
c1ccc2cc3c4ccccc4c4ccccc4c3cc2c1 [Dibenz[a,c]anthracene] |  |  |  |  |  |  |  | Inactive | Inactive | 210 nM | Inactive | Inactive | Inactive | 
